Measured values from a compilation of properties of binary mixtures (doi:10.1039/c8ra04127j).

Experiment: xn = mol fraction of the nth substance listed
Settings: 100 kPa

C[N+](C)(C)CCC[N+]1(C)CCCCC1.N#C[N-]C#N.N#C[N-]C#N + CC#N
viscosity [mPa·s]
Settings	288.15 K	293.15 K	298.15 K	303.15 K	308.15 K	313.15 K	318.15 K	323.15 K	328.15 K	333.15 K
x1 = 0.0999	3.99	–	3.42	3.18	–	2.81	–	2.54	2.43	2.32
x1 = 0.2001	17.4	15.1	13.2	11.6	10.3	–	–	7.49	–	6.16
x1 = 0.3001	56.9	45.9	–	31.4	–	22.7	19.6	–	15.4	13.7
x1 = 0.3998	146	112	87.3	–	–	46.6	39.3	33.3	28.6	24.8
x1 = 0.5002	334	243	–	139	–	87	–	58.2	–	–
x1 = 0.6	679	466	322	246	185	145	114	–	–	62.3
x1 = 0.7001	1177	729	508	370	274	210	–	–	105	85.5
x1 = 0.7996	–	1390	900	623	449	329	246	193	152	122
x1 = 0.8998	3992	2477	1610	1085	760	–	400	303	233	–
x1 = 1	7553	–	–	1837	1224	856	–	460	350	270

C[N+](C)(C)CCC[n+]1ccccc1.N#C[N-]C#N.N#C[N-]C#N + CC#N
viscosity [mPa·s]
Settings	x1 = 0.0999	x1 = 0.1999	x1 = 0.2998	x1 = 0.3997	x1 = 0.4999	x1 = 0.6002	x1 = 0.7001	x1 = 0.7998	x1 = 0.8997	x1 = 1
283.15 K	4.14	14.2	52.8	131	245	474	–	1385	2375	7557
288.15 K	3.75	12.3	42.2	98	175	321	554	848	–	–
293.15 K	3.45	–	34.5	–	129	226	371	562	850	–
298.15 K	3.21	9.55	28.7	59.8	98	166	264	382	–	1306
303.15 K	–	8.55	–	48.3	76.3	125	192	–	392	831
308.15 K	2.83	–	21	39.6	61.3	96.7	146	200	286	558
313.15 K	2.67	7.03	18.2	33.3	50	76.6	109	145	213	386
318.15 K	2.54	6.43	–	28.2	43.5	63.9	89.7	118	161	281
323.15 K	–	5.91	14.1	24.2	36.7	51.7	70.9	91.6	123	–
328.15 K	2.32	5.47	12.5	21	30.6	43.3	57.6	73.2	95.6	162
333.15 K	2.23	–	11.2	18.4	27.6	–	48.5	60.3	75.3	127

CC#N + C[N+](C)(C)CCC[N+]1(C)CCCCC1.N#C[N-]C#N.N#C[N-]C#N
x2 = 0
Settings	viscosity [mPa·s]
293.15 K	0.364
308.15 K	0.32
313.15 K	0.307
318.15 K	0.296
323.15 K	0.285
328.15 K	0.275

CC#N + C[N+](C)(C)CCC[n+]1ccccc1.N#C[N-]C#N.N#C[N-]C#N
x2 = 0
Settings	viscosity [mPa·s]
283.15 K	0.401
288.15 K	0.382
293.15 K	0.364
298.15 K	0.348
303.15 K	0.333
308.15 K	0.32
313.15 K	0.307
318.15 K	0.296
323.15 K	0.285
